Active and inactive are the calls of the source. No rule for the calls is given here.
Tested on: CCRIS mutagenicity, Ames/micronucleus/aberration tests
Experiment: CCRIS mutagenicity studies
[1] = Test System: AMES SALMONELLA TYPHIMURIUM, Strain/Indicator: TA100, Metabolic Activation: NONE, Method: STANDARD PLATE
[2] = Test System: AMES SALMONELLA TYPHIMURIUM, Strain/Indicator: TA98, Metabolic Activation: NONE, Method: STANDARD PLATE

## O=C1C(Cl)=C(Cl)C(=O)c2ccccc21
Test System: AMES SALMONELLA TYPHIMURIUM, Strain/Indicator: TA97, Metabolic Activation: NONE, Method: PREINCUBATION
  mutagenic call: inactive; negative
Test System: AMES SALMONELLA TYPHIMURIUM, Strain/Indicator: TA97, Metabolic Activation: RAT, LIVER, S-9, PHENOBARBITAL AND 5,6-BENZOFLAVONE, Method: PREINCUBATION
  mutagenic call: active; positive
Test System: AMES SALMONELLA TYPHIMURIUM, Strain/Indicator: TA98, Metabolic Activation: NONE, Method: PREINCUBATION
  mutagenic call: inactive; negative
Test System: AMES SALMONELLA TYPHIMURIUM, Strain/Indicator: TA98, Metabolic Activation: RAT LIVER S-9, PHENOBARBITAL AND BETA-NAPHTHOFLAVONE, Method: PREINCUBATION
  mutagenic call: inactive; negative
Test System: AMES SALMONELLA TYPHIMURIUM, Strain/Indicator: TA98, Metabolic Activation: RAT, LIVER, S-9, PHENOBARBITAL AND 5,6-BENZOFLAVONE, Method: PREINCUBATION
  mutagenic call: inactive; negative
Test System: AMES SALMONELLA TYPHIMURIUM, Strain/Indicator: TA100, Metabolic Activation: RAT LIVER S-9, PHENOBARBITAL AND BETA-NAPHTHOFLAVONE, Method: PREINCUBATION
  mutagenic call: inactive; negative
Test System: AMES SALMONELLA TYPHIMURIUM, Strain/Indicator: TA100, Metabolic Activation: RAT, LIVER, S-9, PHENOBARBITAL AND 5,6-BENZOFLAVONE, Method: PREINCUBATION
  mutagenic call: active; positive
Test System: AMES SALMONELLA TYPHIMURIUM, Strain/Indicator: TA102, Metabolic Activation: NONE, Method: PREINCUBATION
  mutagenic call: active; positive
Test System: AMES SALMONELLA TYPHIMURIUM, Strain/Indicator: TA102, Metabolic Activation: RAT, LIVER, S-9, PHENOBARBITAL AND 5,6-BENZOFLAVONE, Method: PREINCUBATION
  mutagenic call: active; positive
Test System: AMES SALMONELLA TYPHIMURIUM, Strain/Indicator: TA104, Metabolic Activation: NONE, Method: PREINCUBATION
  mutagenic call: active; positive
Test System: AMES SALMONELLA TYPHIMURIUM, Strain/Indicator: TA104, Metabolic Activation: RAT, LIVER, S-9, PHENOBARBITAL AND 5,6-BENZOFLAVONE, Method: PREINCUBATION
  mutagenic call: active; positive
Test System: AMES SALMONELLA TYPHIMURIUM, Strain/Indicator: TA1535, Metabolic Activation: NONE, Method: PREINCUBATION
  mutagenic call: inactive; negative
Test System: AMES SALMONELLA TYPHIMURIUM, Strain/Indicator: TA1535, Metabolic Activation: RAT LIVER S-9, PHENOBARBITAL AND BETA-NAPHTHOFLAVONE, Method: PREINCUBATION
  mutagenic call: inactive; negative
Test System: AMES SALMONELLA TYPHIMURIUM, Strain/Indicator: TA1535, Metabolic Activation: RAT, LIVER, S-9, PHENOBARBITAL AND 5,6-BENZOFLAVONE, Method: PREINCUBATION
  mutagenic call: inactive; negative
Test System: AMES SALMONELLA TYPHIMURIUM, Strain/Indicator: TA1537, Metabolic Activation: NONE, Method: PREINCUBATION
  mutagenic call: inactive; negative
Test System: AMES SALMONELLA TYPHIMURIUM, Strain/Indicator: TA1537, Metabolic Activation: RAT LIVER S-9, PHENOBARBITAL AND BETA-NAPHTHOFLAVONE, Method: PREINCUBATION
  mutagenic call: inactive; negative
Test System: AMES SALMONELLA TYPHIMURIUM, Strain/Indicator: TA1537, Metabolic Activation: RAT, LIVER, S-9, PHENOBARBITAL AND 5,6-BENZOFLAVONE, Method: PREINCUBATION
  mutagenic call: inactive; negative
Test System: AMES SALMONELLA TYPHIMURIUM, Strain/Indicator: TA1538, Metabolic Activation: NONE, Method: PREINCUBATION
  mutagenic call: inactive; negative
Test System: AMES SALMONELLA TYPHIMURIUM, Strain/Indicator: TA1538, Metabolic Activation: RAT LIVER S-9, PHENOBARBITAL AND BETA-NAPHTHOFLAVONE, Method: PREINCUBATION
  mutagenic call: inactive; negative
Test System: AMES SALMONELLA TYPHIMURIUM, Strain/Indicator: TA1538, Metabolic Activation: RAT, LIVER, S-9, PHENOBARBITAL AND 5,6-BENZOFLAVONE, Method: PREINCUBATION
  mutagenic call: inactive; negative
Test System: AMES SALMONELLA TYPHIMURIUM, Strain/Indicator: TA2637, Metabolic Activation: NONE, Method: PREINCUBATION
  mutagenic call: inactive; negative
Test System: AMES SALMONELLA TYPHIMURIUM, Strain/Indicator: TA2637, Metabolic Activation: RAT, LIVER, S-9, PHENOBARBITAL AND 5,6-BENZOFLAVONE, Method: PREINCUBATION
  mutagenic call: active; positive
Test System: E.COLI, Strain/Indicator: WP2UVRA, Metabolic Activation: NONE, Method: PREINCUBATION
  mutagenic call: inactive; negative
Test System: E.COLI, Strain/Indicator: WP2UVRA, Metabolic Activation: RAT LIVER S-9, PHENOBARBITAL AND BETA-NAPHTHOFLAVONE, Method: PREINCUBATION
  mutagenic call: inactive; negative

## CCCCOc1cc([N+](=O)[O-])ccc1C(=O)NOC(C)=O
[1]
  mutagenic call: active; positive
Test System: AMES SALMONELLA TYPHIMURIUM, Strain/Indicator: TA100, Metabolic Activation: RAT S9, AROCLOR, Method: STANDARD PLATE
  mutagenic call: active; positive

## CC1(C)[C@@H]2CC[C@@]1(C)C(=O)C2=O
Test System: AMES SALMONELLA TYPHIMURIUM, Strain/Indicator: TA97A, Metabolic Activation: NONE, Method: STANDARD PLATE
  mutagenic call: inactive; negative
Test System: AMES SALMONELLA TYPHIMURIUM, Strain/Indicator: TA97A, Metabolic Activation: RAT LIVER S-9, AROCLOR 1254, Method: STANDARD PLATE
  mutagenic call: inactive; negative
Test System: AMES SALMONELLA TYPHIMURIUM, Strain/Indicator: TA98, Metabolic Activation: HAMSTER, LIVER, S-9, AROCLOR 1254, Method: STANDARD PLATE
  mutagenic call: inactive; negative
[2]
  mutagenic call: inactive; negative
Test System: AMES SALMONELLA TYPHIMURIUM, Strain/Indicator: TA98, Metabolic Activation: RAT LIVER S-9, AROCLOR 1254, Method: STANDARD PLATE
  mutagenic call: inactive; negative
Test System: AMES SALMONELLA TYPHIMURIUM, Strain/Indicator: TA98, Metabolic Activation: RAT, LIVER, S-9, AROCLOR 1254, Method: STANDARD PLATE
  mutagenic call: inactive; negative
Test System: AMES SALMONELLA TYPHIMURIUM, Strain/Indicator: TA100, Metabolic Activation: HAMSTER, LIVER, S-9, AROCLOR 1254, Method: STANDARD PLATE
  mutagenic call: inactive; negative
[1]
  mutagenic call: inactive; negative
Test System: AMES SALMONELLA TYPHIMURIUM, Strain/Indicator: TA100, Metabolic Activation: RAT LIVER S-9, AROCLOR 1254, Method: STANDARD PLATE
  mutagenic call: inactive; negative
Test System: AMES SALMONELLA TYPHIMURIUM, Strain/Indicator: TA100, Metabolic Activation: RAT, LIVER, S-9, AROCLOR 1254, Method: STANDARD PLATE
  mutagenic call: inactive; negative
Test System: AMES SALMONELLA TYPHIMURIUM, Strain/Indicator: TA102, Metabolic Activation: NONE, Method: STANDARD PLATE
  mutagenic call: inactive; negative
Test System: AMES SALMONELLA TYPHIMURIUM, Strain/Indicator: TA102, Metabolic Activation: RAT LIVER S-9, AROCLOR 1254, Method: STANDARD PLATE
  mutagenic call: inactive; negative
Test System: AMES SALMONELLA TYPHIMURIUM, Strain/Indicator: TA1535, Metabolic Activation: HAMSTER, LIVER, S-9, AROCLOR 1254, Method: STANDARD PLATE
  mutagenic call: inactive; negative
Test System: AMES SALMONELLA TYPHIMURIUM, Strain/Indicator: TA1535, Metabolic Activation: NONE, Method: STANDARD PLATE
  mutagenic call: inactive; negative
Test System: AMES SALMONELLA TYPHIMURIUM, Strain/Indicator: TA1535, Metabolic Activation: RAT, LIVER, S-9, AROCLOR 1254, Method: STANDARD PLATE
  mutagenic call: inactive; negative
Test System: AMES SALMONELLA TYPHIMURIUM, Strain/Indicator: TA1537, Metabolic Activation: HAMSTER, LIVER, S-9, AROCLOR 1254, Method: STANDARD PLATE
  mutagenic call: inactive; negative
Test System: AMES SALMONELLA TYPHIMURIUM, Strain/Indicator: TA1537, Metabolic Activation: NONE, Method: STANDARD PLATE
  mutagenic call: inactive; negative
Test System: AMES SALMONELLA TYPHIMURIUM, Strain/Indicator: TA1537, Metabolic Activation: RAT, LIVER, S-9, AROCLOR 1254, Method: STANDARD PLATE
  mutagenic call: inactive; negative
Test System: AMES SALMONELLA TYPHIMURIUM, Strain/Indicator: TA1538, Metabolic Activation: HAMSTER, LIVER, S-9, AROCLOR 1254, Method: STANDARD PLATE
  mutagenic call: inactive; negative
Test System: AMES SALMONELLA TYPHIMURIUM, Strain/Indicator: TA1538, Metabolic Activation: NONE, Method: STANDARD PLATE
  mutagenic call: inactive; negative
Test System: AMES SALMONELLA TYPHIMURIUM, Strain/Indicator: TA1538, Metabolic Activation: RAT, LIVER, S-9, AROCLOR 1254, Method: STANDARD PLATE
  mutagenic call: inactive; negative
Test System: Mouse lymphoma, Strain/Indicator: L5178Y (tk+/tk-), Metabolic Activation: None, Method: Suspension/plate
  mutagenic call: active; positive
Test System: Mouse lymphoma, Strain/Indicator: L5178Y (tk+/tk-), Metabolic Activation: Rat, Liver, S-9, Aroclor 1254, Method: Suspension/plate
  mutagenic call: inactive; negative

## Cc1ccc(NC(=O)c2csc([N+](=O)[O-])c2)cc1
[2]
  mutagenic call: active; positive
[1]
  mutagenic call: active; positive

## CN(CCCCO)N=O
Test System: AMES SALMONELLA TYPHIMURIUM, Strain/Indicator: TA1535, Metabolic Activation: RAT, LIVER, S-9, KC500 OR PHENOBARBITAL, Method: LIQUID SUSPENSION
  mutagenic call: active; positive

Reference: PubChem BioAssay AID1259407 (Chemical Carcinogenesis Research Information System (CCRIS), 2018)
